Measured values: US20260007741A1, “LIPID NANOPARTICLES FOR DELIVERY OF NUCLEIC ACIDS AND VACCINES” (priority 2024, published 2026)
Where two headings read alike, the source gives them in different places.

Columns and labels:
[1] = for % of main lipid peak to To: 1% H2O2/100 μM Fe(III)Cl, 37° C.
Protocol: The aim of this studies was to compare stability of ionizable cationic lipids under accelerated oxidation.
Prior to the experiment, 75 μl of a lipid stock was mixed with 75 μl of ultra-pure water (Rx Biosciences, cat #P01-UPW02-1000) to make 0.5 mM of cationic lipids and 5 mM of linoleic acid respectively. A combined stock in water of 10% H2O2 (Sigma-Aldrich, cat #H1009) and 1 mM of Fe(III)Cl (Sigma-Aldrich, cat #372870) was freshly by prepared prior to the experiment. To make 1% final concentration of H2O2 and 100 μM Fe(III)Cl, 15 μl of 10% H2O2/1 mM Fe(III)C1 stock was added to 135 μl of individual lipids The liposomes and individual lipids were incubated with H2O2/Fe(III)C1 at 37° C. and then 5 μl from each sample was taken at different time points (0, 24, 48, 72 and 96 hours) and dissolved in 90 μl of MeOH for HPLC analysis. Degradation of the main lipid peak was analyzed using Thermo Scientific Vanquish Flex UHPLC occupied with Charged Aerosol Detector (CAD) and Phenomenex™ Kinetex C8 column (L=150 mm, D=2.1 mm, Particle Size=1.7 μm, 100 A).
The data are presented as a percentage of the main lipid peak measured at different time points relative to the lipid peak measured at time zero.

[2] = Apparent solubility of phosphatidylserine salts in ethanol (shake flask); assay type: physicochemical; conditions: for Solubility, mM phosphatidylserine: 100% ethanol at room temperature, 24 hours, average±SD (N=3)
Protocol: Apparent solubilities of phosphatidylserine salts in ethanol were determined by shake flask technique. Sodium and ammonium salts of phosphatidylserines in the powder form were obtained from Avanti Polar Lipids (Alabama, USA). Aliquots of phosphatidylserine salt powder were placed in 12×75 borosilicate glass tubes in triplicate. Three mL of 200 proof ethanol (catalog number E-7023, MilliporeSigma, USA) were added, the tubes were closed with polyethylene snap caps, agitated using vortex mixer for 10-15 s to obtain uniform suspensions, and placed in a horizontal position on a rocking platform at room temperature (20-22° C.) overnight. The ambient temperature at the end of incubation was 20.4-20.9° C. After 24 hours incubation, the suspensions were visually checked for the presence of a solid phase, allowed to settle under gravity, and the supernatant solutions were passed through a 0.2-μm PTFE syringe membrane filters. The first 0.5 ml of the filtrate was discarded, the next 1 ml was collected, and phosphatidylserine in the filtrates was quantified by phospholipid phosphate assay as follows: 20 μL aliquots of the filtrate were taken in triplicate into glass tubes, ethanol was evaporated in a stream of argon at 70° C., and the residue was digested in a mixture of 60 μL concentrated sulfuric acid and 20 μL 30% hydrogen peroxide for 10 min at 180-190° C. The digested samples were diluted with 1 mL of deionized water, 20 μL of 10% sodium sulfite was added to destroy any residual peroxide, and the samples were incubated on a boiling water bath for 15 min to hydrolyze any condensed phosphate species. The samples were chilled down to room temperature, mixed with 0.2 mL of 2% (w/w) ammonium molybdate solution and 20 μL of 10% (w/w) ascorbic acid solution, incubated on a boiling water bath for 10 min, and chilled down in a water bath at room temperature. The phosphate concentration was determined from the optical density of the formed blue phosphomolybdic acid at 825 nm using five-point standard curve from concurrently run standards prepared from the NIST-traceable commercial phosphate standard solution diluted to cover the range of 0-2 mM phosphate (coefficient of determination R^2 >0.9999). Solubility of phosphatidylserine salts was expressed in molarity units of phosphatidylserine (Table 40). The data are average±SD (N=3).

[3] = tested on: human dendritic cells; assay: Transfection efficiency of mCherry mRNA LNPs in human dendritic cells (flow cytometry); conditions: human dendritic cells (Example 9)
Protocol: Four days prior to transfection, monocytes were isolated using CD14 isolation kit (StemCell) from PBMCs of healthy donors. […] The monocytes were cultured with IL-4 (R&D 1000 IU/mL) and GM-CSF (R&D, 800 IU/mL) in a 6 well dish at 1×10^6 cells/mL at 37° C., 5% CO2. After 4 days the immature DCs were harvested and seeded in a 96 well round bottom plate at 50,000 cells/well. LNPs were thawed by placing the vials in a 37° C. water bath for 30 seconds, or until the sample had almost fully melted. The vials were immediately placed on ice until use. The LNPs were added to final concentrations of 1 μg/ml and 0.1 μg/mL mRNA. For 1 μg/mL treatment, LNPs were added directly to each well then wells were mixed by pipetting. For 0.1 μg/mL treatment, LNPs were diluted 1:10 in complete media then added to each well and mixed by pipetting. After 4 h a maturation cytokine cocktail was added directly to each well consisting of TNF-α (R&D, 10 ng/mL), IL-1b (R&D, 2 ng/mL), IL-6 (R&D, 1000 IU/mL), and PGE1 (R&D, 1 μg/mL). After 24 h, the cells were centrifuged, washed in PBS and analyzed by flow cytometry for mCherry fluorescence. Gating analysis was performed using CytExpert software.

[4] = tested on: TLR7/8; assay: In vivo inflammatory profile of UUGU oligoribonucleotides in LNP formulations using different ICLs (Example 28; serum and dLNs); parameters: species or system mice; conditions: 1 ug UUGU dose
From the text: Blood and dLNs (pooled iliac, popliteal and inguinal LNs) were harvested 6 hrs post-injection. […] No. 740622). LNs were weighed prior to lysis, and analyte concentrations were converted from pg/mL to pg/mg of tissue mass. […] The analyte concentrations in the blood serum are reported in Table 68 and the mean fold changes over vehicle treatment are shown in Table 69. The analyte concentrations in the dLNs are reported in Table 70 and the mean fold changes over vehicle treatment are shown in Table 71. The primary aim of this study was to examine the effect of various ionizable cationic lipids (ICLs) on the delivery of a UUGU oligoribonucleotide to TLR7/8 located intracellularly in endolysosomal compartments. We also sought to determine whether PS-targeting of LNPs influenced activity. […] UUGU oligos were encapsulated in LNPs formulated with KC-OA family ICLs, AKG-UO-DM2, DODMA, or DODAP. We also tested the ALC-0315 and SM-102 LNP formulations. The effect of PS targeting on biological activity was also assessed using either DOPS or DPPS formats.

[5] = tested on: MutuDC1940 cells; assay: Transfection efficiency of mCherry mRNA LNPs in murine dendritic cells (flow cytometry); assay type: cell-based; conditions: for mRNA endosomal escape and translation / mRNA transfection: MutuDC1940 cells, mCherry mRNA LNPs; for transfection activity when incorporated into LNPs: murine dendritic cells (Example 8)
Protocol: • 1. MutuDC1940 cells (Applied Biological Materials, T0528) were grown according to supplier's instructions in T75 flasks. They were plated at 180,000 cells/well into 24-well plate one day prior to transfection. • 2. LNPs were added in triplicate to each well at the desired mRNA concentration (e.g. 1 μg/mL) in 1 mL media and after 24 h the cells were washed once with DPBS (VWR 02-0119-1000). • 3. 0.2 mL of DPBS (plus 5 mM EDTA, pH 7.4) was then added to facilitate detachment. • 4. The cells were placed at 37° C. for 3 min, until detached. • 5. 0.5 ml DPBS added to each well and the liquid transferred to a flow cytometry tube (Falcon 5 mL #352054). • 6. The tube was centrifuged at 1100 rpm for 3-5 min and the liquid poured off. • 7. 100 μL of Zombie Violet (Biolegend) (diluted 1:500 in PBS) was added to each tube. • 8. The tubes were gently tapped to resuspend cells and placed in the dark for 15 min at RT. • 9. To the cells 0.5 mL of (paraformaldehyde 4% in PBS:DPBS 1:1) was added and the cells flicked gently to resuspend and put on ice for 30 min. Another 2 ml PBS was added. • 10. The cells were pelleted as above and resuspended in 0.5 mL DPBS with 5% BSA and placed in the fridge until needed.
Cells suspensions were analyzed by an Attune NxT flow cytometer using the VL1 and YL2 for live/dead and mCherry fluorescence signals respectively. Gating analysis was performed on FloJo software.

[6] = Semple et al., (2010) Nature Biotech. 28 (2) 172-176; cited from earlier work
[7] = tested on: TLR9; assay: In vivo inflammatory profile of CpG-ODN 1018 in LNP formulations with various ICLs (Example 27; serum and dLNs); parameters: species or system BALB/c mice; conditions: 1 μg dose CpG

## CCCCC/C=C\C/C=C\CCCCCCCCC1(CCCCCCCC/C=C\C/C=C\CCCCC)OCC(CCCN(C)C)O1 (stereo not drawn) [KC3, reference compound]
[1]
  degradation relative to other cationic lipids under the forced oxidation with H2O2: fastest degradation
[1]; 24 h
  % of main lipid peak to To: 11.2 ± 1.0%
[1]; 48 h
  % of main lipid peak to To: 10.5 ± 0.5%
[1]; 72 h
  % of main lipid peak to To: 0 ± 0%

## CCCCCCCCCCCCCCCC(=O)OC[C@H](COP(=O)(O)OC[C@H](N)C(=O)O)OC(=O)CCCCCCCCCCCCCCC.N [DPPS ammonium]
[2]
  ethanol solubility compared to ammonium salt of DSPS or the sodium salts: several-fold higher
  Solubility, mM phosphatidylserine: 0.865 ± 0.060 mM

## CCCCCC/C=C\CCCCCCCCC1(CCCCCCCC/C=C\CCCCCC)OC[C@H](CCCN(C)C)O1 [KC3-PA, 3-((S)-2,2-di((Z)-hexadec-9-en-1-yl)-1,3-dioxolan-4-yl)-N,N-dimethylpropan-1-amine]
[1]; 24 h
  % of main lipid peak to To: 62.7 ± 0.1%
[1]; 48 h
  % of main lipid peak to To: 59.2 ± 0.8%
[1]; 72 h
  % of main lipid peak to To: 60.2 ± 0.6%
[3]
  transfection activity when incorporated into LNPs: highest activity

## CCCCCCCC/C=C\CCCCCCCCC1(CCCCCCCC/C=C\CCCCCCCC)OC[C@H](CCCN(C)C)O1 [KC3-OA, 3-((S)-2,2-di((Z)-octadec-9-en-1-yl)-1,3-dioxolan-4-yl)-N,N-dimethylpropan-1-amine]
[1]; 24 h
  % of main lipid peak to To: 88.9 ± 0.5%
[1]; 48 h
  % of main lipid peak to To: 84.6 ± 0.9%
[1]; 72 h
  % of main lipid peak to To: 79.0 ± 0.1%
[4]
  induction of a proinflammatory signature by UUGU LNPs by ICL: most efficient
[5]
  mRNA endosomal escape and translation / mRNA transfection: relatively efficient
  transfection activity when incorporated into LNPs: highest activity
[3]
  transfection activity when incorporated into LNPs: highest activity

## CCCCC/C=C\C/C=C\CCCCCCCCC1(CCCCCCCC/C=C\C/C=C\CCCCC)OCC(CCN(C)C)O1 (stereo not drawn) [KC2]
[6]
  activity of KC2 compared to KC3: 6 fold

## CCCCCCCCCCCCCCCCCC(=O)OC[C@H](COP(=O)(O)OC[C@H](N)C(=O)O)OC(=O)CCCCCCCCCCCCCCCCC.N [DSPS ammonium]
[2]
  Solubility, mM phosphatidylserine: 0.034 ± 0.004 mM

## CCCCCCCC/C=C\CCCCCCCC1(CCCCCCC/C=C\CCCCCCCC)OC[C@H](CCCN(C)C)O1 [KC3-17 (C8:1), 3-((S)-2,2-di((Z)-heptadec-8-en-1-yl)-1,3-dioxolan-4-yl)-N,N-dimethylpropan-1-amine]
[1]; 24 h
  % of main lipid peak to To: 66.1 ± 0.6%
[1]; 48 h
  % of main lipid peak to To: 58.4 ± 1.5%
[1]; 72 h
  % of main lipid peak to To: 45.9 ± 4.7%
[5]
  transfection activity when incorporated into LNPs: highest activity
[3]
  transfection activity when incorporated into LNPs: highest activity

## CCCCCCCCCCCCCCCC(=O)OC[C@H](COP(=O)(O)OC[C@H](N)C(=O)[O-])OC(=O)CCCCCCCCCCCCCCC.[Na+] [DPPS sodium]
[2]
  Solubility, mM phosphatidylserine: 0.201 ± 0.004 mM

## CCCCCCCC/C=C\CCCCCCCC(=O)OC[C@H](CCCN(C)C)OC(=O)CCCCCCC/C=C\CCCCCCCC [AKG-OA-DM3, (S)-5-(dimethylamino)pentane-1,2-diyl dioleate]
[5]
  mRNA endosomal escape and translation / mRNA transfection: relatively poor for mRNA transfection

## CCCCCCCC/C=C\CCCCCCCCC1(CCCCCCCC/C=C\CCCCCCCC)OCC(CCCCN(C)C)O1 (racemic) [KC4-OA, 4-rac-2,2-di((Z)-octadec-9-en-1-yl)-1,3-dioxolan-4-yl)-N,N-dimethylbutan-1-amine]
[5]
  mRNA endosomal escape and translation / mRNA transfection: relatively efficient

## CCCCCCCCCCCCCCCCCC1(CCCCCCCCCCCCCCCCC)OC[C@H](CCCN(C)C)O1 [KC3-17, (S)-3-(2,2-diheptadecyl-1,3-dioxolan-4-yl)-N,N-dimethylpropan-1-amine]
[1]; 24 h
  % of main lipid peak to To: 92.9 ± 0.3%
[1]; 48 h
  % of main lipid peak to To: 91.8 ± 1.2%
[1]; 72 h
  % of main lipid peak to To: 90.2 ± 1.2%
[5]
  transfection activity when incorporated into LNPs: completely inactive

## CCCCCCCC/C=C\CCCCCCCCOC[C@H](CN(C)C)OCCCCCCCC/C=C\CCCCCCCC [DODMA, reference compound]
[4]
  induction of a proinflammatory signature by UUGU LNPs by ICL: most efficient

## CCCCCCCC/C=C\CCCCCCCC(=O)OC[C@H](CCN(C)C)OC(=O)CCCCCCC/C=C\CCCCCCCC [AKG-OA-DM2, (S)-4-(dimethylamino)butane-1,2-diyl dioleate]
[4]
  induction of a proinflammatory signature by UUGU LNPs by ICL: most potent LNP adjuvant formulation
[4]; listed as AKG-UO-DM2
  induction of a proinflammatory signature by UUGU LNPs by ICL: most efficient
[7]
  levels of IL-12p70 and type I IFN-α in the blood and dLNs: highest levels
[5]
  mRNA endosomal escape and translation / mRNA transfection: relatively poor for mRNA transfection

## CCCCC/C=C\CCCC/C=C\CCCCCC1(CCCCC/C=C\CCCC/C=C\CCCCC)OC[C@H](CCCN(C)C)O1 [KC3-01, 3-((S)-2,2-di((6Z,12Z)-octadeca-6,12-dien-1-yl)-1,3-dioxolan-4-yl)-N,N-dimethylpropan-1-amine]
[3]
  transfection activity when incorporated into LNPs: highest activity

## CCCCCCCCCCCCCCCCCC(=O)OC[C@H](COP(=O)(O)OC[C@H](N)C(=O)[O-])OC(=O)CCCCCCCCCCCCCCCCC.[Na+] [DSPS sodium]
[2]
  Solubility, mM phosphatidylserine: 0.111 ± 0.009 mM

## CCCCCCCC/C=C\CCCCCCCCC1(CCCCCCCC/C=C\CCCCCCCC)OC[C@H](CCN(C)C)O1 [KC2-OA, 2-((S)-2,2-di((Z)-octadec-9-en-1-yl)-1,3-dioxolan-4-yl)-N,N-dimethylethan-1-amine]
[5]
  mRNA endosomal escape and translation / mRNA transfection: relatively efficient
